Test [1] deals with Human immunodeficiency virus 1. Nature of the test: Antiviral activity against HIV1 infected in human CEM-SS cells assessed as inhibition of virus-induced cytopathic effect after 6 days by XTT-based assay. The test is classed as functional, organism-based. The settings on record: Human immunodeficiency virus 1, CEM-SS, 144 h. Background: Protection from cytopathic effect is a common read-out in antiviral testing.

Test [2] concerns CEM-SS. Nature of the test: Cytotoxicity against human CEM-SS cells after 6 days by XTT-based assay. It is filed as cell-based. The settings on record: 144 h. (In general: Formazan colour is commonly taken as a measure of viable cells.)
Test [3] has as its system Human immunodeficiency virus 1. Nature of the test: Antiviral activity against HIV1 infected in human CEM-SS cells assessed as protection against viral infection after 6 days by XTT-based assay relative to control. It is filed as functional.

SMILES strings stand for the structures. ≈ marks a conversion by molar mass, not a printed value.

One may read the EC50 as the concentration that produces a half-maximal response. The IC50 is the point on the concentration scale where inhibition reaches its midpoint.

In the case of `COc1cc2c(cc1CC=C(C)C)[C@@H]1Oc3cc(O)ccc3[C@@H]1CO2`, in test [1], the EC50 was 0.2 µg/mL (≈ 0.591 µM). This compound also yielded an IC50 in test [2] of 3 µg/mL (≈ 8.87 µM). The Activity in test [3] is listed as 80%.

As to `COc1ccc2c(c1CC=C(C)C)O[C@H]1c3ccc(O)cc3OC[C@@H]21` [SANDWICENSIN], the EC50 in test [1] stood at 2 µg/mL (≈ 5.91 µM). The compound also had an IC50 in test [2] of 7 µg/mL (≈ 20.7 µM). For the same compound, the Activity in test [3] is listed as 50%.
